≈ marks a conversion by molar mass, not a printed value. Like-named read-outs stand apart in the source and are kept apart here.
What was measured:
[1] = system: Staphylococcus aureus ATCC 43300 MRSA; experiment: Antibacterial time kill assay; format: cell-based; settings: for MIC: Staphylococcus aureus
Protocol: The time-kill method is based on CLSI guideline M26-A (NCCLS, 1999).
The collaborator supplied sample as dry material. A stock solution was prepared at 10 mg/mL in neat DMSO (11.2 mg in 1.12 mL of DMSO). The highest concentration tested in the assay was 64 μg/mL and 2% DMSO as a final concentration using 1/20 dilution to achieve these concentrations.
Time kill plates: CBD was plate across all the rows and serially diluted in Cation-adjusted Mueller Hinton Broth (CaMHB; BD, Cat. No. 212322) two-fold across the wells of polystyrene (PS) 96-well plates (Corning; Cat. No. 3370), plated in duplicate. Each row were taken as a time point, where row A, 0 h; row B, 1 h; row C, 2 h; row D, 3 h; row E, 4 h; row F, 6 h and row G, 24 h.
Also, control plates were made. CBD and standard antibiotics were serially diluted in Cation-adjusted Mueller Hinton Broth (CaMHB; BD, Cat. No. 212322) two-fold across the wells of polystyrene (PS) 96-well plates (Corning; Cat. No. 3370), plated in duplicate.
The tested bacteria was Staphylococcus aureus ATCC 43300 MRSA (ID GP_020:02).
Charcoal plate PS 96-well plates: 50 μL of sterile activated charcoal suspension (25 mg/ml) were added into row A. 90 μL of 0.9% sterile saline were added to subsequent rows.
Bacteria (Table 2.6) was cultured in CaMHB at 37° C. overnight, then diluted 40-fold and incubated at 37° C. for a further 2-3 h. The resultant mid-log phase cultures were diluted in CaMHB and added to each well of the control and time kill 96-well plates to give a final cell density of 5×10^5 CFU/mL, and a final compound concentration range of 0.03-64 μg/mL. The plates were covered and incubated at 37° C. for 24 h.
At selected time-points (0, 1, 2, 3, 4, 6 and 24 h), 50 μL of culture per-well was transferred from the time kill plate into the first row of charcoal plate (containing the charcoal suspension) to neutralise the compound. After mixing well, 10 μL were transferred from row A to row B to give a 1:10 dilution, this step was repeated until 1:10'000 (row E). […]
MICs and the time kill results were determined visually at 24 hr incubation. […]

[2] = Protein binding inferred from loss of activity in 50% human serum; format: in vitro ADME; settings: assuming 3% free responsible for activity
Protocol: The compounds were serially diluted in mixture of 50% of human serum (Sigma; Cat. No. H3667-100ML) along with 50% Cation-adjusted Mueller Hinton Broth (CaMHB; BD, Cat. No. 212322) two-fold across the wells of polystyrene (PS) 96-well plates (Corning; Cat. No. 3370), plated in duplicate. All plates had flat bottom wells and were covered with low-evaporation lids.
All control antibiotics gave inhibitory values within the expected ranges.

P. acnes ATCC 6919 = experiment: Anaerobic MIC micro-broth dilution; format: cell-based, Cutibacterium acnes (formerly Propionibacterium acnes); settings: P. acnes ATCC 6919, anaerobic chamber, BHI, 48 h
[3] = system: A. acidipropionici ATCC 25562; experiment: Anaerobic MIC micro-broth dilution; format: cell-based, Acidipropionibacterium acidipropionici; settings: A. acidipropionici ATCC 25562, anaerobic chamber, BHI, 48 h

## C=C(C)C1CCC(C)=CC1c1c(O)cc(CCCCC)cc1O (centres unmarked) [Cannabidiol, 2-[3-methyl-6-(1-methylethenyl)-2-cyclohexen-1-yl]-5-pentyl-1,3-benzenediol]
[1]; CaMHB, 24 hr, read-out: CBD control MIC of the day
  MIC: 2 µg/mL
[1]; read-out: previous MIC data
  MIC: 1 to 2 µg/mL (≈ 3.18 to 6.36 µM)
[1]; concentrations over or equal to the MIC value
  treatment time after which bactericidal: 3 h
[2]
  fraction unbound: < 0.03
P. acnes ATCC 6919; listed as Cannabidiol (Batch 2)
  MIC: 2/1
P. acnes ATCC 6919; listed as Cannabidiol (CBD)
  MIC: active
[3]
  MIC: active
[3]; Acidipropionibacterium acidipropionici, ATCC25562, read-out: MIC
  MIC: 0.5 µg/mL (≈ 1.59 µM)

— patent publication US20220296535A1, “Antibacterial Dosage Regime Using Cannabinoids” (Botanix Pharmaceuticals Limited, priority 2019, published 2022)
